# Values of other authors in the CATMoS acute toxicity set (Mansouri et al. 2021).
# “And” between values parts separate entries of the source, which are not always exact repeats. Equal entries are not always repeated. Where a SMILES comes first, the peptide text is derived from it. Bridges are numbered along the chain shown (N, C = ends). [ ]: non-standard residue; d: D form. The star is where a group is joined. Octanoyl(6-Me) = CCC(C)CCCCC(=O)*; Dab = NCC[CH](N)C(=O)O
# Test: rat acute oral toxicity
# Conditions: in vivo
row,SMILES,LD50
1,CC1(COCC2(C)CO2)CO1 (configuration not stated),1680 mg/kg
2,CNC(=O)Oc1ccc(NC(=O)C(F)(F)Cl)c(C)c1,48.5 mg/kg
3,COS(=O)(=O)OC,205 mg/kg
4,N[C@@H](CCC(=O)O)C(=O)O,14700 mg/kg
5,c1ccc2c(c1)ncn2P(n1cnc2ccccc21)n1cnc2ccccc21,2900 mg/kg
6,Cc1cc(OC(=O)N(C)C)n(-c2ccccc2)n1,62 mg/kg
7,C[C@@H]1O[C@@H](O[C@@H]2C=C3CC[C@@H]4[C@H](CC[C@]5(C)[C@@H](c6ccc(=O)oc6)CC[C@]45O)[C@@]3(C)CC2)[C@H](O)[C@H](O)[C@H]1O,56 mg/kg
8,COc1cc(-c2ccc(N=Nc3c(O)ccc4ccccc34)c(OC)c2)ccc1N=Nc1ccc2c(S(=O)O)cc(S(=O)(=O)O)c(N)c2c1,6700 mg/kg
9,N=C(O)CCC/N=C(\c1ccc(Cl)cc1)c1cc(F)ccc1O,1350 mg/kg
10,CC1C(C)(C)C2=C(C(=O)CCC2)C1(C)C (configuration not stated),2900 mg/kg
11,O=C(NNCc1ccccc1)c1ccccn1,240 mg/kg
12,CCc1nn(-c2ccc(F)cc2)c2c(=O)[nH]ccc12,375 mg/kg
13,CCOP(=O)(OCC)SCS(=O)CC (configuration not stated),1 mg/kg
14,CC(=O)N(C)C(=O)Oc1cccc(C(C)(C)C)c1,1000 mg/kg
15,COP(=O)(OC)OC(C)=CC(=O)OCc1ccc(Cl)cc1,139 mg/kg
16,COP(=S)(OC)SSP(=S)(OC)OC,10000 mg/kg
17,O=c1ccn(C2OC(COP(=O)(O)O)C(O)C2O)c(=O)[nH]1 (configuration not stated),12000 mg/kg
18,CCOC(=S)SSC(=S)OCC,480 mg/kg
19,Cc1ccc2c(Cl)cc(Cl)c(O)c2n1,660 mg/kg
20,COc1ccc2c3c1OC1C(O)CCC4C(C2)N(C)CCC341 (configuration not stated),359 mg/kg
21,Nc1ccc(Cc2ccc(N)cc2)cc1,517 mg/kg
22,CCCCCCCCOC(C[n+]1ccccc1)c1ccc(C(C)(C)C)cc1 (configuration not stated),250 mg/kg
23,CCCCC(CC)Cc1ccccc1O (configuration not stated),2460 mg/kg

row,SMILES,LD50
1,CCOP(=S)(OCC)SCSc1ccc(Cl)c(Cl)c1,89 mg/kg
2,ClCCC[Si](Cl)(Cl)Cl,200 mg/kg
3,CCN(CCC#N)c1ccc(N=Nc2nc3ccc(S(C)(=O)=O)cc3s2)c(C)c1,400 mg/kg
4,CC(Cc1ccccc1)NC(C#N)c1ccccc1 (configuration not stated),37.6 mg/kg
5,CC(=O)c1ccc2oc3ncccc3c(=O)c2c1,1680 mg/kg
6,CCCCC(CC)COP(=O)(O)OCC(CC)CCCC (configuration not stated),4940 mg/kg
7,CCOc1ccc(NCCC#N)cc1,4600 mg/kg
8,O=c1oc2cc(Cl)ccc2n1CCl,2350 mg/kg
9,O=COCc1ccccc1,1400 mg/kg
10,CCSc1nc(=O)n(CC(C)(C)C)c(=O)n1N,3500 mg/kg
11,FC(F)(F)c1nc2c(Cl)c(Cl)c(Cl)c(Cl)c2[nH]1,0.245 mg/kg
12,C=C(CCl)CCl,150 mg/kg
13,CC(C)(C)N1CCC(c2ccccc2)(c2ccccc2)CC1,165 mg/kg
14,COP(=S)(OC)SCn1nc(Cl)c(Cl)cc1=O,12000 mg/kg
15,CC(N)CSc1ccc(Cl)cc1 (configuration not stated),600 mg/kg
16,CC=CC=CC#N,712 mg/kg
17,CC(C)NCC(O)COC(C)c1ccccc1 (configuration not stated),540 mg/kg
18,Oc1cccc2cccnc12,1200 mg/kg
19,CCC(=C(c1ccc(OCCN(C)C)cc1)c1ccc(OP(=O)(O)O)cc1)c1ccc(C(C)C)cc1,785 mg/kg
20,COP(=S)(OC)SCSc1cc(Cl)ccc1Cl,220 mg/kg
21,CN(c1ccc(F)cc1F)c1c([N+](=O)[O-])cc([N+](=O)[O-])cc1C(F)(F)F,250 mg/kg
22,CCCc1c(OCc2cccn3c(=O)c(CC(=O)O)cnc23)ccc(C(C)=O)c1O,4000 mg/kg
23,CCN(CC)S(=O)(=O)CCNC(=O)N(CCCl)N=O,60 mg/kg

row,SMILES,LD50
1,O=C(O)c1ccccc1Nc1cc(Cl)ccc1C(=O)O,1150 mg/kg
2,O=C(Cc1ccccc1)OCCc1ccccc1,15000 mg/kg
3,CCN(CC)CCOc1nn(-c2cccc(C(F)(F)F)c2)c2ncccc12,1200 mg/kg
4,C[N@+]12CCCC[C@@H]1CCC(=C(c1cccs1)c1cccs1)C2,1180 mg/kg
5,CC1COn2c1nc1ccccc1c2=O (configuration not stated),765 mg/kg
6,CC(C)=CCN(CC=C(C)C)CCC(C)(C(N)=O)c1cccc2ccccc12 (configuration not stated),353 mg/kg
7,CSC(C)=NOC(=O)N(C)SN(C)C(=O)Oc1ccc(C(C)(C)c2ccc(OC(=O)N(C)SN(C)C(=O)ON=C(C)SC)cc2)cc1,508 mg/kg
8,c1ccc2c(c1)CCCC2C1=NCCN1 (configuration not stated),785 mg/kg
9,FC(F)(F)c1nc2c(Cl)ccc(Cl)c2[nH]1,2.61 mg/kg
10,CC(O)CC=O (configuration not stated),2180 mg/kg
11,COP(=S)(OC)Oc1cnc2ccccc2n1,900 mg/kg
12,COc1ccc2c(c1)OC(C)(C)C(c1ccccc1)=C2c1ccc(OCCN)cc1,1500 mg/kg
13,C=CS(C)(=O)=O,570 mg/kg
14,C=C1C(=CC=C2CCCC3(C)C2CCC3C(C)CCCC(O)(C(F)(F)F)C(F)(F)F)CC(O)CC1O (configuration not stated),0.0417 mg/kg
15,COP(=S)(OC)SC1OCCOC1SP(=S)(OC)OC (configuration not stated),350 mg/kg
16,CCCCOC(=O)C(Cl)(Cl)Oc1ccccc1,1500 mg/kg
17,CCC1C(c2ccccc2)=CCC(C(=O)O)C1C (configuration not stated),2350 mg/kg
18,CCn1cc(C(=O)O)c(=O)c2cc(F)c(N3CCN(C)CC3)cc21,2500 mg/kg
19,c1ccc2[nH]ccc2c1,1000 mg/kg
20,Oc1ccc(-c2ccccc2)cc1CN1CCCCC1,30 mg/kg
21,CN(C)c1cccc2nc3cccc([N+](=O)[O-])c3cc12,24 mg/kg
22,CN(C)C(=O)C(CCN1CCC(O)(c2ccc(Cl)cc2)CC1)(c1ccccc1)c1ccccc1,185 mg/kg and 98 mg/kg
23,CC[N+]1(CC)CCC(OC(=O)C(O)(c2ccccc2)c2ccccc2)C1 (configuration not stated),760 mg/kg

row,SMILES,LD50
1,CCC(Cc1c(I)cc(I)c(N)c1I)C(=O)O (configuration not stated),2990 mg/kg and 1540 mg/kg
2,OC(c1ccccc1)(c1ccc(Cl)cc1)C1CCCCN1 (configuration not stated),400 mg/kg
3,CCOc1ccccc1OS(=O)(=O)NC(O)=Nc1nc(OC)cc(OC)n1,2910 mg/kg
4,CCOP(=O)(O)O,1600 mg/kg
5,Cc1cccc(N2CCN(CCC(O)c3ccc4c(c3)CCC(=O)N4)CC2)c1C (configuration not stated),500 mg/kg
6,C=CCN(C)N=O,340 mg/kg
7,O[C@@H]1CO[C@H]2[C@@H]1OC[C@@H]2O,24200 mg/kg
8,FC(F)(F)c1nc2c(Br)cc(Br)cc2[nH]1,5.98 mg/kg
9,CCNc1nc(NC(C)(C)C)nc(SC)n1,2040 mg/kg
10,COC(=O)C1=C(C)NC(C)=C(C(=O)OCC(C)C)C1c1ccccc1[N+](=O)[O-] (configuration not stated),1260 mg/kg
11,CCCC(N)(CCC)CCC,135 mg/kg
12,Cc1[nH]c2ccccc2c1C=CC1=[N+](C)c2ccccc2C1(C)C,2450 mg/kg
13,CCC(C)(O)C#CC(C)(O)CC (configuration not stated),1400 mg/kg
14,O=C(O)Cn1c(=O)sc2cccc(Cl)c21,3000 mg/kg
15,CC[C@H](C)N,380 mg/kg
16,CCCCCCCCCc1ccc(OCCO)cc1,2100 mg/kg
17,O=S(=O)(Oc1ccc(Cl)cc1)c1ccccc1,1350 mg/kg
18,FC(F)(F)c1nc2c(Cl)c(Cl)c(Cl)c(Br)c2[nH]1,4.12 mg/kg
19,COC(=O)C1C2C=CC(C2)C1C(=O)OC (configuration not stated),1000 mg/kg
20,O=S1(=O)CCN(c2ccccc2)CC1,800 mg/kg
21,CCOC(=O)C=CN(C)C,4500 mg/kg
22,CCCSP(=S)(OC)SCCC,16 mg/kg
23,CN(C)c1ncnc2c1ncn2CC1CC1,570 mg/kg

row,SMILES,LD50
1,C[N+](C)(N)CCCl,3400 mg/kg
2,CCN(CCC(=O)OC)c1ccccc1,2450 mg/kg
3,Cn1c(=O)c2c(ncn2CCCCN2CCN(c3ccc(F)cc3)CC2)n(C)c1=O,353 mg/kg
4,CCC(C)CCCCC(=O)NC(CCN)C(=O)NC(C(=O)NC(CCN)C(=O)NC1CCNC(=O)C(C(C)O)NC(=O)C(CCN)NC(=O)C(CCN)NC(=O)C(C(C)O)NC(=O)C(CC(C)C)NC(=O)C(CCN)NC1=O)C(C)O (configuration not stated) ({Octanoyl(6-Me)}-[Dab]T[Dab][Dab][Dab]LT[Dab][Dab]T; lactam 4-C; configuration not given here),910 mg/kg
5,Clc1ccc2ncoc2c1,791 mg/kg
6,OC(CNc1ccccn1)c1ccccc1 (configuration not stated),756 mg/kg
7,CC(C)(Oc1ccc(Cl)cc1)C(=O)OCc1cccc(CO)n1,1250 mg/kg
8,CCCCCCCCCCCCN1CC(C)OC(C)C1 (configuration not stated),3500 mg/kg
9,C=CC(=O)NCOCCCC,1030 mg/kg
10,C[C@@H]1CCCCN1N=O,600 mg/kg
11,CN(C(=O)c1cc(C(F)(F)F)cc(C(F)(F)F)c1)c1nc(C(F)(F)F)c(Cl)s1,501 mg/kg
12,COC(=O)Nc1nc2ccccc2[nH]1,6400 mg/kg and 12500 mg/kg and 7500 mg/kg
13,Cc1oc(C)c(C(=O)Nc2ccccc2)c1C,1470 mg/kg
14,Cc1cc(C(=O)NNC(C)Cc2ccccc2)no1 (configuration not stated),89 mg/kg
15,Oc1ccc(Cl)c(O)c1,369 mg/kg
16,COC(=O)C1CCC(C(=O)OC)CC1 (configuration not stated),2810 mg/kg
17,COC(=O)C1=C(C)NC(C)=C(C(=O)OCCN(C)Cc2ccccc2)C1c1cccc([N+](=O)[O-])c1 (configuration not stated),184 mg/kg and 320 mg/kg
18,Oc1cc(Cl)ccc1Oc1ccc(Cl)cc1Cl,3700 mg/kg
19,CCN(CC(=O)O)S(=O)(=O)C(F)(F)C(F)(F)C(F)(F)C(F)(F)C(F)(F)C(F)(F)C(F)(F)C(F)(F)F,619 mg/kg
20,CCCCCc1cc(O)c2c(c1)OC(C)(C)[C@@H]1CC=C(C)C[C@@H]21,860 mg/kg
21,CCOP(=O)(OCC)SCc1ccccc1,660 mg/kg
22,OCCOCc1ccccc1,1190 mg/kg
23,ClC1=C(Cl)C2(Cl)C3C4OC(C5OC54)C3C1(Cl)C2(Cl)Cl (configuration not stated),142 mg/kg

row,SMILES,LD50
1,C=CCON/C(CCC)=C1\C(=O)CC(C)(C)C(C(=O)OC)C1=O (configuration not stated),2260 mg/kg
2,CCOP(=S)(OCC)SCC(N)=O,10 mg/kg
3,N#CCC(=O)c1ccc(N)cc1,2260 mg/kg
4,O=C1c2ccccc2C(=O)C1c1ccccc1,163 mg/kg
5,CC[C@H](OC(C)=O)C(C[C@H](C)N(C)C)(c1ccccc1)c1ccccc1,29 mg/kg
6,CC(Cc1ccccc1)NCC1COc2ccccc2C1=O (configuration not stated),500 mg/kg
7,Nc1nc2cccc(Cl)c2o1,410 mg/kg
8,COc1ccc2nc3c(c(N)c2c1)CCCC3,753 mg/kg
9,CN(CCO)Cc1cc(C(=O)c2cccs2)cc(C(C)(C)C)c1O,1000 mg/kg
10,C=COCCOC(=O)C(=C)C,5940 mg/kg
11,CCCCOC(=O)CCCCC(=O)OCCCC,12900 mg/kg
12,Cc1cc(O)ccc1S(C)=O (configuration not stated),3500 mg/kg
13,CCOc1ccc(C2(c3ccc(OCC)cc3)CC2(Cl)Cl)cc1,755 mg/kg
14,C=C[C@@]1(C)CC(=O)[C@]2(O)[C@@]3(C)[C@@H](O)CCC(C)(C)[C@@H]3[C@H](O)[C@H](OC(C)=O)[C@@]2(C)O1,2550 mg/kg
15,COc1ccc(NS(=O)(=O)c2ccc(N)cc2)nn1,2740 mg/kg
16,CC1C2Cc3ccc(O)cc3C1(C)CCN2CCc1ccccc1 (configuration not stated),90 mg/kg
17,CC(C)OP(=S)(OC(C)C)SCSC(C)C,5 mg/kg
18,CC(C=O)=Cc1ccco1,1400 mg/kg
19,CCCCOCCCC,7400 mg/kg
20,CCN(Cc1ccncc1)N=O,40 mg/kg
21,CC1(C)OCC(CCl)O1 (configuration not stated),115 mg/kg
22,CC(CC1c2ccccc2CCc2ccccc21)CN(C)C (configuration not stated),700 mg/kg
